Test results published in article PMC6270011, “Design and Synthesis of Arylthiophene-2-Carbaldehydes via Suzuki-Miyaura Reactions and Their Biological Evaluation” (Molecules, 2013).
≈ marks a conversion by molar mass, not a printed value. Like-named read-outs stand apart in the source and are kept apart here.

What was measured:
[1] = tested on: Gram-negative bacteria; assay: Antibacterial activity against Gram-negative bacteria (strain not named); type: cell-based
[2] = tested on: Bacillus subtilis; assay: Antibacterial activity (disc / inhibition zone) against Bacillus subtilis; details: for zone of inhibition at 25 µg/mL / zone of inhibition at 50 µg/mL: read-out: Inhibition zone, B. subtilis
[3] = tested on: Shigella dysenteriae; assay: Antibacterial activity (disc / inhibition zone) against Shigella dysenteriae; details: read-out: Inhibition zone, S. dysenteriae
[4] = tested on: Salmonella typhi; assay: Antibacterial activity (disc / inhibition zone) against Salmonella typhi; details: Salmonella enterica, read-out: Inhibition zone, S. typhi
[5] = Nitric oxide (NO) scavenging assay; type: biochemical
Excerpt: Nitric oxide (NO) is a free radical causing inflammatory disorders and cancer in the human body when sodium nitroprusside decomposes to produce nitric oxide. The antioxidant activity of various thiophene derivatives has been reported in the literature and it has also been observed that compounds with high antioxidant activity served as antitumor agents. The newly synthesized compounds reacted directly with nitric oxide and inhibited nitrite formation in an excellent way.
The reaction mixtures comprising sample solution (2 µL), phosphate buffer (17 µL) and sodium nitroprusside (20 µL) were incubated at 37 °C for 2 h in well plates. Then Griess reagent (20 µL, 0.3% sulphanilic acid in glacial acetic acid + 0.1% naphthylethylenediamine (NED): equal volumes of both solutions mixed just before use) was added to each well plate and the mixture kept at room temperature for 20 min to develop the color. The absorbance was measured at 528 nm by using an ELISA reader. The results were processed using Gen 5 software. All the reactions were performed in triplicate. Positive control (containing known antioxidant) and control (containing all samples) were run in parallel. Negative control was used to calibrate the instrument. The % age antioxidant activity was determined by using the following formula: % antioxidant activity = [(Absorbance of control − absorbance of sample)/(Absorbance of control)] × 100

[6] = tested on: human red blood cells (erythrocytes); type: cell-based; details: human erythrocytes, 37 °C, 35 min
Experimental: Three mL of freshly obtained human blood was placed in heparinized tubes to avoid coagulation, gently mixed and poured into a sterile 15 mL Falcon tube and centrifuged for 5 min at 1,000 ×g. The supernatant was discarded and red blood cells were washed three times with chilled (4 °C) sterile isotonic phosphate buffer saline pH 7.4 (5 mL). Erythrocytes (10^8 cells/mL) were maintained for each assay by dilution with phosphate buffer saline. Erythrocytes were counted on a heamacytometer. Twenty µL of each compound was mixed with red blood cells suspension (180 μL) separately. The samples were incubated at 37 °C for 35 min. The samples were placed on ice for 5 min and then agitated at 1,000 ×g for 5 min. Supernatant (100 µL) were taken from each tube and diluted 10 times with chilled (4 °C) phosphate buffered saline. Triton X-100 (0.1% v/v) was taken as a positive control and PBS was negative control and then subjected to the same process. […] The percentage RBSs lyses for each sample was calculated.

[7] = tested on: Escherichia coli; assay: Antibacterial activity (disc / inhibition zone) against Escherichia coli; details: read-out: Inhibition zone, E.coli
[8] = tested on: Pseudomonas aeruginosa; assay: Antibacterial activity (disc / inhibition zone) against Pseudomonas aeruginosa; details: read-out: Inhibition zone, P. aeruginosa
[9] = tested on: Staphylococcus aureus; assay: Antibacterial activity (disc / inhibition zone) against Staphylococcus aureus; details: read-out: Inhibition zone, S. aureus
[10] = molecular target: urease enzyme (Canavalia ensiformis, UniProt P07374)
Chain of urease enzyme (P07374 whole entry, looked up): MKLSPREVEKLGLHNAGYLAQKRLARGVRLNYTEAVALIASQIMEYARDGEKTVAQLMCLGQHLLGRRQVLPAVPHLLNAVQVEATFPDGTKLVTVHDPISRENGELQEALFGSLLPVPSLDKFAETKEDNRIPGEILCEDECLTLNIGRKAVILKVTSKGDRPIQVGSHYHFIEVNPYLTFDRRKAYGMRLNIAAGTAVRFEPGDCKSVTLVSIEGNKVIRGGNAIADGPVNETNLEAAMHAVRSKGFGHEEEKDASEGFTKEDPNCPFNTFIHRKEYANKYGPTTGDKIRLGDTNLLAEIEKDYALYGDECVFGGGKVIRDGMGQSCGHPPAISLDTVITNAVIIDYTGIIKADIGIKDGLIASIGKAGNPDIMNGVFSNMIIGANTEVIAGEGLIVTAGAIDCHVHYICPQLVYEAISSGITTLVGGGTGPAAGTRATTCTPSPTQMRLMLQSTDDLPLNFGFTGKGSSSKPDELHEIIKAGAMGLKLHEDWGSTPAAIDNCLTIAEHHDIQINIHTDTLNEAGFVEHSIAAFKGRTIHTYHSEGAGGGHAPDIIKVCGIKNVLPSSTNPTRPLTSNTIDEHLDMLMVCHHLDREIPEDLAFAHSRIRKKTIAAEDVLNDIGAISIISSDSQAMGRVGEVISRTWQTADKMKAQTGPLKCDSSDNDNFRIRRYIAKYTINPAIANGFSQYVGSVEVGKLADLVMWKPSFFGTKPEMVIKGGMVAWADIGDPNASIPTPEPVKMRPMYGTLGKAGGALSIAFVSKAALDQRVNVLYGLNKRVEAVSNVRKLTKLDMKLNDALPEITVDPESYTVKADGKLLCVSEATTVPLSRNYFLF

[11] = 25 µg/mL, read-out: % Activity at 25 µg (NO scavenging)
[12] = 50 µg/mL, read-out: % Activity at 50 µg (NO scavenging)
[13] = 100 µg/mL, read-out: % Activity at 100 µg (NO scavenging)

| SMILES | zone of inhibition at 25 µg/mL [2] [mm] | zone of inhibition at 50 µg/mL [2] [mm] | zone of inhibition at 25 µg/mL [3] [mm] | zone of inhibition at 50 µg/mL [3] [mm] | zone of inhibition at 25 µg/mL [4] [mm] | zone of inhibition at 50 µg/mL [4] [mm] | inhibition [5, 11] [%] | inhibition [5, 12] [%] | inhibition [5, 13] [%] | Haemolytic activity, percentage of lysis (Average ± SD) [6] [%] | melting point [°C] | zone of inhibition at 25 µg/mL [7] [mm] | zone of inhibition at 50 µg/mL [7] [mm] | zone of inhibition at 25 µg/mL [8] [mm] | zone of inhibition at 50 µg/mL [8] [mm] | zone of inhibition at 25 µg/mL [9] [mm] | zone of inhibition at 50 µg/mL [9] [mm] | other results |
| --- | --- | --- | --- | --- | --- | --- | --- | --- | --- | --- | --- | --- | --- | --- | --- | --- | --- | --- |
| Cc1cc(C)cc(-c2csc(C=O)c2)c1 [2g, 4-(3,5-Dimethylphenyl)thiophene-2-carbaldehyde] | 36 ± 0.08 | 56 ± 0.24 | 32 ± 0.01 | 59 ± 0.44 | 32.2 ± 0.11 | 61 ± 0.16 | 13 ± 0.002 | 28 ± 0.007 | 43 ± 0.002 | 4.525 ± 0.075 | 71 to 73 | 22.5 ± 0.11 | 44.5 ± 0.19 | 25 ± 0.06 | 56 ± 0.04 | 27 ± 0.08 | 59 ± 0.44 | IC50 [1]: 45.2 µg/mL (≈ 209 µM) |
| O=Cc1cc(-c2ccc(Cl)s2)cs1 [2c] | 36.2 ± 0.05 | 60 ± 0.01 | 35 ± 0.01 | 64 ± 0.11 | 34 ± 0.05 | 64 ± 0.5 | 18 ± 0.007 | 40 ± 0.038 | 55 ± 0.04 | 3.934 ± 0.095 | 229 to 231 | 14 ± 0.14 | 24 ± 0.17 | 45 ± 0.019 | 60 ± 0.009 | 34 ± 0.01 | 64 ± 0.11 | IC50 ([2]; read-out: IC50 against Bacillus subtilis): 39.4 µg/mL (≈ 172 µM); IC50 (NO scavenging) [5]: 83.3 µg/mL (≈ 364 µM) |
| NC(N)=S [Thiourea, thiourea, reference compound] |  |  |  |  |  |  |  |  |  |  |  |  |  |  |  |  |  | IC50 (urease inhibition) [10]: 27.5 µg/mL (≈ 361 µM); %age Activity at 25 μg (urease inhibition) ([10]; 25 µg/mL): 47 ± 0.007%; %age Activity at 50 μg (urease inhibition) ([10]; 50 µg/mL): 77 ± 0.015% |
